The NIST ThermoML archive (doi:10.1016/j.jct.2013.10.013)
Numbers after ± are expanded uncertainties.

Test: xn = mol fraction of the nth substance listed
Conditions: 101 kPa, Liquid, Vibrating tube method

For `CCCCOCCO` [2-butoxyethan-1-ol] + O, the mass density (283.15 K, x1 = 0.000906) was 999.515 ± 0.2 kg/m3, the mass density (283.15 K, x1 = 0.001283) was 999.44 ± 0.2 kg/m3 and the mass density (283.15 K, x1 = 0.001685) was 999.376 ± 0.2 kg/m3. For the same molecule, the mass density (283.15 K, x1 = 0.001942) was 999.379 ± 0.2 kg/m3, the mass density (283.15 K, x1 = 0.003834) was 999.137 ± 0.2 kg/m3 and the mass density (283.15 K, x1 = 0.006957) was 998.855 ± 0.2 kg/m3. It also gave a mass density (283.15 K, x1 = 0.009993) of 998.677 ± 0.2 kg/m3, a mass density (283.15 K, x1 = 0.01324) of 998.516 ± 0.2 kg/m3 and a mass density (288.15 K, x1 = 0.000906) of 998.873 ± 0.2 kg/m3. For the same molecule, the mass density (288.15 K, x1 = 0.001283) was 998.804 ± 0.2 kg/m3, the mass density (288.15 K, x1 = 0.001685) was 998.733 ± 0.2 kg/m3 and the mass density (288.15 K, x1 = 0.001942) was 998.742 ± 0.2 kg/m3. The mass density (288.15 K, x1 = 0.003834) was 998.449 ± 0.2 kg/m3, the mass density (288.15 K, x1 = 0.006957) was 998.058 ± 0.2 kg/m3 and the mass density (288.15 K, x1 = 0.009993) was 997.764 ± 0.2 kg/m3. The mass density (288.15 K, x1 = 0.01324) was 997.453 ± 0.2 kg/m3, the mass density (293.15 K, x1 = 0.000906) was 997.98 ± 0.2 kg/m3 and the mass density (293.15 K, x1 = 0.001283) was 997.897 ± 0.2 kg/m3. The mass density (293.15 K, x1 = 0.001685) was 997.814 ± 0.2 kg/m3, the mass density (293.15 K, x1 = 0.001942) was 997.774 ± 0.2 kg/m3 and the mass density (293.15 K, x1 = 0.003834) was 997.436 ± 0.2 kg/m3. For the same molecule, the mass density (293.15 K, x1 = 0.006957) was 996.956 ± 0.2 kg/m3, the mass density (293.15 K, x1 = 0.009993) was 996.553 ± 0.2 kg/m3 and the mass density (293.15 K, x1 = 0.01324) was 996.129 ± 0.2 kg/m3. For the same molecule, the mass density (298.15 K, x1 = 0.000906) was 996.815 ± 0.2 kg/m3, the mass density (298.15 K, x1 = 0.001283) was 996.726 ± 0.2 kg/m3 and the mass density (298.15 K, x1 = 0.001685) was 996.633 ± 0.2 kg/m3. The mass density (298.15 K, x1 = 0.001942) was 996.592 ± 0.2 kg/m3, the mass density (298.15 K, x1 = 0.003834) was 996.204 ± 0.2 kg/m3 and the mass density (298.15 K, x1 = 0.006957) was 995.629 ± 0.2 kg/m3. It also gave a mass density (298.15 K, x1 = 0.009993) of 995.12 ± 0.2 kg/m3, a mass density (298.15 K, x1 = 0.01324) of 994.56 ± 0.2 kg/m3 and a mass density (303.15 K, x1 = 0.000906) of 995.386 ± 0.2 kg/m3. The mass density (303.15 K, x1 = 0.001283) was 995.295 ± 0.2 kg/m3, the mass density (303.15 K, x1 = 0.001685) was 995.201 ± 0.2 kg/m3 and the mass density (303.15 K, x1 = 0.001942) was 995.143 ± 0.2 kg/m3. For the same molecule, the mass density (303.15 K, x1 = 0.003834) was 994.715 ± 0.2 kg/m3, the mass density (303.15 K, x1 = 0.006957) was 994.053 ± 0.2 kg/m3 and the mass density (303.15 K, x1 = 0.009993) was 993.447 ± 0.2 kg/m3. For the same molecule, the mass density (303.15 K, x1 = 0.01324) was 992.75 ± 0.2 kg/m3.
Molecule `CC(C)COCCO` [2-(2-methylpropoxy)ethanol] + O has a mass density (283.15 K, x1 = 0.000617) of 999.515 ± 0.2 kg/m3, a mass density (283.15 K, x1 = 0.001164) of 999.412 ± 0.2 kg/m3 and a mass density (283.15 K, x1 = 0.001812) of 999.296 ± 0.2 kg/m3. The mass density (283.15 K, x1 = 0.00198) was 999.307 ± 0.2 kg/m3, the mass density (283.15 K, x1 = 0.003969) was 999.013 ± 0.2 kg/m3 and the mass density (283.15 K, x1 = 0.006759) was 998.702 ± 0.2 kg/m3. It also gave a mass density (283.15 K, x1 = 0.009969) of 998.438 ± 0.2 kg/m3, a mass density (283.15 K, x1 = 0.01319) of 998.199 ± 0.2 kg/m3 and a mass density (288.15 K, x1 = 0.000617) of 998.897 ± 0.2 kg/m3. The mass density (288.15 K, x1 = 0.001164) was 998.784 ± 0.2 kg/m3, the mass density (288.15 K, x1 = 0.001812) was 998.655 ± 0.2 kg/m3 and the mass density (288.15 K, x1 = 0.00198) was 998.645 ± 0.2 kg/m3. It also gave a mass density (288.15 K, x1 = 0.003969) of 998.299 ± 0.2 kg/m3, a mass density (288.15 K, x1 = 0.006759) of 997.897 ± 0.2 kg/m3 and a mass density (288.15 K, x1 = 0.009969) of 997.523 ± 0.2 kg/m3. It also gave a mass density (288.15 K, x1 = 0.01319) of 997.151 ± 0.2 kg/m3, a mass density (293.15 K, x1 = 0.000617) of 998.017 ± 0.2 kg/m3 and a mass density (293.15 K, x1 = 0.001164) of 997.888 ± 0.2 kg/m3. The mass density (293.15 K, x1 = 0.001812) was 997.743 ± 0.2 kg/m3, the mass density (293.15 K, x1 = 0.00198) was 997.724 ± 0.2 kg/m3 and the mass density (293.15 K, x1 = 0.003969) was 997.322 ± 0.2 kg/m3. For the same molecule, the mass density (293.15 K, x1 = 0.006759) was 996.836 ± 0.2 kg/m3, the mass density (293.15 K, x1 = 0.009969) was 996.347 ± 0.2 kg/m3 and the mass density (293.15 K, x1 = 0.01319) was 995.851 ± 0.2 kg/m3. For the same molecule, the mass density (298.15 K, x1 = 0.000617) was 996.846 ± 0.2 kg/m3, the mass density (298.15 K, x1 = 0.001164) was 996.707 ± 0.2 kg/m3 and the mass density (298.15 K, x1 = 0.001812) was 996.548 ± 0.2 kg/m3. For the same molecule, the mass density (298.15 K, x1 = 0.00198) was 996.506 ± 0.2 kg/m3, the mass density (298.15 K, x1 = 0.003969) was 996.06 ± 0.2 kg/m3 and the mass density (298.15 K, x1 = 0.006759) was 995.497 ± 0.2 kg/m3. For the same molecule, the mass density (298.15 K, x1 = 0.009969) was 994.904 ± 0.2 kg/m3, the mass density (298.15 K, x1 = 0.01319) was 994.282 ± 0.2 kg/m3 and the mass density (303.15 K, x1 = 0.000617) was 995.459 ± 0.2 kg/m3. For the same molecule, the mass density (303.15 K, x1 = 0.001164) was 995.292 ± 0.2 kg/m3, the mass density (303.15 K, x1 = 0.001812) was 995.136 ± 0.2 kg/m3 and the mass density (303.15 K, x1 = 0.00198) was 995.092 ± 0.2 kg/m3. For the same molecule, the mass density (303.15 K, x1 = 0.003969) was 994.592 ± 0.2 kg/m3, the mass density (303.15 K, x1 = 0.006759) was 993.958 ± 0.2 kg/m3 and the mass density (303.15 K, x1 = 0.009969) was 993.254 ± 0.2 kg/m3. For the same molecule, the mass density (303.15 K, x1 = 0.01319) was 992.505 ± 0.2 kg/m3.
Work on `O` [water] + CCCCOCCO yielded a mass density (283.15 K, x2 = 0) of 999.699 ± 0.2 kg/m3.
`O` [water] + CC(C)COCCO gave a mass density (283.15 K, x2 = 0) of 999.699 ± 0.2 kg/m3.
Molecule `O` [water] + CC(C)NCCO has a mass density (283.15 K, x2 = 0) of 999.699 ± 0.2 kg/m3.
